Patent publication US11076593B2, “Reperfusion with omega-3 glycerides promotes donor organ protection for transplantation” (The Trustees of Columbia University in the City of New York, priority 2013, dated 2021)

What was measured:
[1] = system: isolated C57BL/6 mouse hearts; assay: Ex vivo I/R: release of injury markers (LDH, creatine kinase) into the perfusate
Text: Evidence supporting the methods and products of the invention has been established in an ex vivo model using hearts rapidly removed from ketamine/xylazine anesthetized 12-14 weeks old C57BL/6 mice weighing between 25-30 g that were retrograde perfused in a non-recirculating mode, using an isovolumic perfusion system through the well-known Langendorf System (FIG. 1). In this system isolated mouse hearts were initially perfused with a perfusion buffer containing KREB's solution containing (in mM) the following: 118 NaCl, 4.7 KCl, 2.5 CaCl2, 1.2 MgCl2, 25 NaHCO3, 5 Glucose, 0.4 Palmitate, 0.4 BSA, and 70 mU/1 insulin. […]
After the induced ischemia, control hearts were reperfused using the same Kreb's buffer. […] TG fatty acid (FA) composition (by weight) of the emulsion used in experiments 1-9 was determined by gas liquid chromatography and was as follows for the n-3 emulsion: C14:0, 5.4%; C16:0, 14.8%; C16:1, 8.4%; C18:0, 2.8%; C18:1, 12.7%; C18:2 (n-6), 2.6%; C18:3 (n-3), 0.8%; C20:1, 1.2%; C20:4 (n-6), 1.9%; C20:5 (EPA, n-3), 18.3%; C22:1, 0.2%; C22:4, 0.6%; C22:5, 2.6%; and C22:6 ([…], n-3), 27.7. […]
Myocardial injury was assessed by measuring the release of lactate dehydrogenase (LDH) from the effluent in the ex vivo I/R system and from blood samples in the in vivo LAD system, using the commercially available enzymatic kits (Pointe Scientific, INC, MI USA) as published earlier.^1,2 […]

[2] = system: p10 C57BL/6J neonatal mice, cerebral H/I; assay: Unilateral cerebral hypoxia-ischemia (H/I) in neonatal mice, TTC infarct volume at 24 hr; format: in vivo, mouse; details: pre-H/I protocol, two i.p. doses; 24 hr reperfusion
Text: Three-day-old C57BL/6J neonatal mice of both genders were purchased from Jackson Laboratories (Bar Harbor, Me.) with their birth mother. The Rice-Vannucci model of H/I was used and modified to p10 neonatal mice.^5 Briefly, on postnatal day 10 H/I was induced by the ligation of the right common carotid artery, which was further cauterized and cut under isoflurane anesthesia. The investigator was blinded to the lipid emulsion treatment during the surgery and after the surgery. The entire surgical procedure was completed within 5 min for each mouse. Pups were then allowed to recover with their dams for 1.5 hr. Surrounding temperature during experiments was kept at 28° C. Mice were then exposed to systemic hypoxia for 15 min in a hypoxic chamber in a neonatal isolette (humidified 8% oxygen/nitrogen, Tech Air Inc., White Plains, N.Y.).^5 The ambient temperature inside the chamber during hypoxia was stabilized at 37±0.3° C. […]
After 24 hr of reperfusion, the animals were sacrificed by decapitation and brains were immediately harvested. […] Using Adobe Photoshop and NIH Image J imaging applications, planar areas of infarction on serial sections were summed to obtain the volume (mm^3) of infarcted tissue, which was divided by the total (infarcted+non-infarcted) volume of the hemisphere ipsilateral to carotid artery ligation, and expressed as a percentage of total volume. […]

Structure (SMILES) | LDH release compared to I/R control hearts ([1]; SB-216763 (3 μM) plus 0.3% n-3 TG emulsion) | LDH release (fold change) compared to I/R control ([1]; inhibitor alone, from baseline through ischemia and reperfusion, 10 μM LY-294002, 3 μM SB216763) | infarct volume compared to saline control [2]
Cn1cc(C2=C(c3ccc(Cl)cc3Cl)C(=O)NC2=O)c2ccccc21 [SB216763] | significantly inhibited LDH release | significantly inhibited LDH release | 
Cc1c(C)c2c(c(C)c1O)CC[C@@](C)(CCC[C@H](C)CCC[C@H](C)CCCC(C)C)O2 [alpha-tocopherol] |  |  | no significant difference
